Source: patent US20230086702A1, “SUBSTITUTED 2-AMINO-PYRAZOLYL-[1,2,4]TRIAZOLO[1,5A]PYRIDINE DERIVATIVES AND USE THEREOF” (The Johns Hopkins University, priority 2019, published 2023)

Tests used:
LZK = target: T1, LZK (Homo sapiens, UniProt O43283); assay: LZK biochemical assay (TR-FRET, MKK7 phosphorylation); details: LZK catalytic domain, MKK7 substrate, 15 μM ATP
T1 construct: 10 nM LZK, catalytic domain, Carna Biosiences in assay buffer; purchased Carna Biosciences ('Carna Biosiences' [sic])
T1 sequence (O43283 168-409 limits assumed): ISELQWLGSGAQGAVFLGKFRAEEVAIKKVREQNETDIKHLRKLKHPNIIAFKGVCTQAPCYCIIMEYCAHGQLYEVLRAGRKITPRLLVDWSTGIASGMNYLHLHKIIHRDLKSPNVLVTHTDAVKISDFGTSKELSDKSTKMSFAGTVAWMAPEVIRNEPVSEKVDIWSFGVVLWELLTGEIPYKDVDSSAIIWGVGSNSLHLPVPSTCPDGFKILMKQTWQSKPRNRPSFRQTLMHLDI
Description: (§1) LZK assay is a biochemical assay format designed to screen for inhibitors of LZK. Enzymatic activity of LZK is measured by monitoring phosphorylation of the physiological substrate MKK7 (MAP2K7, Dual specificity mitogen-activated protein kinase kinase 7). Phosphorylation is detected by a TR-FRET system whereby His-tagged MKK7 is labeled by a XL665-labeled anti-His antibody (FRET acceptor, emission 665 nm). LZK phosphorylates MKK7 at T275/S277 which is detected by an Eu-labeled anti-phospho-MKK7 (T275/S277) antibody (FRET donor, excitation 340 nm). Phosphorylation of MKK7 results in an increased TR-FRET signal (Ratio XL665-channel/Eu-channel) and inhibition of enzymatic activity of LZK decreases the TR-FRET signal.
All indicated concentrations final concentrations.
(§2) Detection buffer: 25 mM Tris/HCl pH 7.5, 100 mM EDTA, 100 mM NaCl, 200 mM KF, 0.01% Tween 20, 1:500 Smart Block.

DLK = target: T2, DLK (Homo sapiens, UniProt Q12852); assay: DLK biochemical assay (TR-FRET, MKK7 phosphorylation); details: DLK catalytic domain, MKK7 substrate, 60 μM ATP
T2 construct: 10 nM DLK, catalytic domain, Carna Biosiences; purchased Carna Biosciences ('Carna Biosiences' [sic])
T2 sequence (Q12852 125-366 limits assumed): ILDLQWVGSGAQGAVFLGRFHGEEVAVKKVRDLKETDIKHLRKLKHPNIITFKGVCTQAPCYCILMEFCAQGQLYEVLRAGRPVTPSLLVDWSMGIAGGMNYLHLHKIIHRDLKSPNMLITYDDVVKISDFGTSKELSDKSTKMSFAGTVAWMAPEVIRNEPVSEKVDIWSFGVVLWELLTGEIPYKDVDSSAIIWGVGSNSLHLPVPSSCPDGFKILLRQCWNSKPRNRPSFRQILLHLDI
Description: as §1, with “DLK assay” for “LZK assay”, “of DLK.” for “of LZK.”, “of DLK” for “of LZK”, “nm). DLK” for “nm). LZK”, “at T275/S277,” for “at T275/S277”
All indicated concentrations are final concentrations.
as §2

| Structure (SMILES) | IC50 (LZK) [nM] | IC50 (DLK) [nM] |
| --- | --- | --- |
| CCC(c1ccc(N2CCOCC2)cc1)n1cc(-c2cc(C(=O)N[C@@H](C)CC)c3nc(N)nn3c2)cn1 (single isomer, unassigned) [Example I-49] | 17 | 1.5 |
| CC[C@H](C)NC(=O)c1cc(-c2cnn(C(c3ccccc3)C3CCC3)c2)cn2nc(N)nc12 (mixture of isomers) [Example I-27, 2-Amino-N-[(2S)-butan-2-yl]-6-{1-[cyclobutyl(phenyl)methyl]-1H-pyrazol-4-yl}[1,2,4]triazolo[1,5-a]pyridine-8-carboxamide] | 390 | 7.7 |
| CCC(c1ccc(C(F)(F)F)nc1)n1cc(-c2cc(C(=O)N[C@H]3CCOC3)n3nc(N)nc3c2)cn1 (single isomer, unassigned) [Example I-179] | 7.9 | 1.8 |
| C[C@@H](CO)NC(=O)c1cc(-c2cnn([C@H](c3ccc(C(F)(F)F)nc3)C3CCOCC3)c2)cn2nc(N)nc12 (single isomer, unassigned) [Example I-155, 2-Amino-N-[(25)-1-hydroxypropan-2-yl]-6-(1-{tetrahydro-2H-pyran-4-yl[6-(trifluoromethyl)pyridin-3-yl]methyl}-1H-pyrazol-4-yl)[1,2,4]triazolo[1,5-a]pyridine-8-carboxamide] | 3.9 | 0.7 |
| CCC(c1ccc(OC(F)(F)F)nc1)n1cc(-c2cc(C(=O)NC(C)(C)CO)c3nc(N)nn3c2)cn1 (racemic) [Example I-169, 2-Amino-N-(1-hydroxy-2-methylpropan-2-yl)-6-(1-{1-[6-(trifluoromethoxy)pyridin-3-yl]propyl}-1H-pyrazol-4-yl)[1,2,4]triazolo[1,5-a]pyridine-8-carboxamide] | 71 | 26 |
| CCC(c1ccc(C(F)(F)F)nc1)n1cc(-c2cc(C(=O)N[C@@H](C)CC)c3nc(N)nn3c2)cn1 (mixture of isomers) [Example I-70, 2-Amino-N-[(2S)-butan-2-yl]-6-(1-{1-[6-(trifluoromethyl)pyridin-3-yl]propyl}-1H-pyrazol-4-yl)[1,2,4]triazolo[1,5-a]pyridine-8-carboxamide] | 6.5 | 2.1 |
| Nc1nc2c(C(=O)NC3CNC(=O)C3)cc(-c3cnn(Cc4ccc(F)cc4)c3)cn2n1 (racemic) [Example I-136, 2-Amino-6-[1-(4-fluorobenzyl)-1H-pyrazol-4-yl]-N-(5-oxopyrrolidin-3-yl)[1,2,4]triazolo[1,5-a]pyridine-8-carboxamide] | 210 | 23 |
| CC[C@@H](c1ccc(OC(F)(F)F)nc1)n1cc(-c2cc(C(=O)N[C@@H](C)CO)c3nc(N)nn3c2)cn1 (single isomer, unassigned) [Example I-158, 2-Amino-N-[(25)-1-hydroxypropan-2-yl]-6-(1-{1-[6-(trifluoromethoxy)pyridin-3-yl]propyl}-1H-pyrazol-4-yl)[1,2,4]triazolo[1,5-a]pyridine-8-carboxamide] | 3.4 | 0.6 |
| CCC(c1ccc(C(F)(F)F)nc1)n1cc(-c2cc(C(=O)N[C@@H](C)CO)c3nc(N)nn3c2)cn1 (mixture of isomers) [Example I-151, 2-Amino-N-[(2S)-1-hydroxypropan-2-yl]-6-(1-{1-[6-(trifluoromethyl)pyridin-3-yl]propyl}-1H-pyrazol-4-yl)[1,2,4]triazolo[1,5-a]pyridine-8-carboxamide] | 9.8 | 6.9 |
| CC[C@H](C)NC(=O)c1cc(-c2cnn(C(c3ccccc3)C3CC(F)(F)C3)c2)cn2nc(N)nc12 (mixture of isomers) [Example I-31, 2-Amino-N-[(2S)-butan-2-yl]-6-{1-[(3,3-difluorocyclobutyl)(phenyl)methyl]-1H-pyrazol-4-yl}[1,2,4]triazolo[1,5-a]pyridine-8-carboxamide] | 150 | 3.8 |
| CC[C@H](C)NC(=O)c1cc(-c2cnn(C(CC(F)(F)F)c3ccccc3)c2)cn2nc(N)nc12 (single isomer, unassigned) [Example I-39] | 230 | 24 |
| CC(CF)NC(=O)c1cc(-c2cnn(C(c3ccccc3)C(C)C)c2)cn2nc(N)nc12 (single isomer, unassigned) [Example I-140, 2-Amino-N-(1-fluoropropan-2-yl)-6-[1-(2-methyl-1-phenylpropyl)-1H-pyrazol-4-yl][1,2,4]triazolo[1,5-a]pyridine-8-carboxamide] | 32 | 0.5 |
| CC[C@H](C)NC(=O)c1cc(-c2cnn(C3CCN(CC)CC3)c2)cn2nc(N)nc12 (single isomer, unassigned) [Example I-6] | 6.7 | 17 |
| CC[C@H](C)NC(=O)c1cc(-c2cnn(C3CCCc4ncccc43)c2)cc2nc(N)nn12 (mixture of isomers) [Example I-19, 2-Amino-N-[(2S)-butan-2-yl]-7-[1-(5,6,7,8-tetrahydroquinolin-5-yl)-1H-pyrazol-4-yl][1,2,4]triazolo[1,5-a]pyridine-5-carboxamide] | 3.9 | 21 |
| CC(CF)NC(=O)c1cc(-c2cnn(C(c3ccccc3)C(C)C)c2)cn2nc(N)nc12 (single isomer, unassigned) [Example I-142, 2-Amino-N-[1-fluoropropan-2-yl]-6-{1-[2-methyl-1-phenylpropyl]-1H-pyrazol-4-yl}[1,2,4]triazolo[1,5-a]pyridine-8-carboxamide] | 240 | 4.2 |
| CC(C)C(c1ccc(F)cc1)n1cc(-c2cc(C(=O)N[C@@H](C)CO)c3nc(N)nn3c2)cn1 (mixture of isomers) [Example I-160, 2-Amino-6-{1-[1-(4-fluorophenyl)-2-methylpropyl]-1H-pyrazol-4-yl}-N-[(2S)-1-hydroxypropan-2-yl][1,2,4]triazolo[1,5-a]pyridine-8-carboxamide] | 130 | 4.3 |
| CC[C@H](C)NC(=O)c1cc(-c2cnn(C(COC)c3ccccc3)c2)cn2nc(N)nc12 (single isomer, unassigned) [Example I-41] | 26 | 2.8 |
| CCC(c1ccc(Cl)s1)n1cc(-c2cc(C(=O)N[C@@H](C)CC)c3nc(N)nn3c2)cn1 (single isomer, unassigned) [Example I-130] | 100 | 53 |
| CC(C)(CO)NC(=O)c1cc(-c2cnn(C(c3ccc(C(F)(F)F)nc3)C3CCOCC3)c2)cn2nc(N)nc12 (racemic) [Example I-166, 2-Amino-N-(1-hydroxy-2-methylpropan-2-yl)-6-(1-{tetrahydro-2H-pyran-4-yl[6-(trifluoromethyl)pyridin-3-yl]methyl}-1H-pyrazol-4-yl)[1,2,4]triazolo[1,5-a]pyridine-8-carboxamide] | 20 | 4.2 |
| CC[C@H](C)NC(=O)c1cc(-c2cnn(C(c3cncc(Cl)c3)C(C)C)c2)cn2nc(N)nc12 (single isomer, unassigned) [Example I-63] | 5.2 | 0.4 |
| CC[C@H](C)NC(=O)c1cc(-c2cnn(C(c3ccnc(OC)c3)C(C)C)c2)cc2nc(N)nn12 (mixture of isomers) [Example I-126, 2-Amino-N-[(2S)-butan-2-yl]-7-{1-[1-(2-methoxypyridin-4-yl)-2-methylpropyl]-1H-pyrazol-4-yl}[1,2,4]triazolo[1,5-a]pyridine-5-carboxamide] | 1.3 | 0.2 |
| CC[C@H](C)NC(=O)c1cc(-c2cnn(C(c3ccc(C(F)(F)F)nc3)C3CCN(C(=O)OC(C)(C)C)CC3)c2)cn2nc(N)nc12 (mixture of isomers) [Example I-79, tert-Butyl 4-{(4-{2-amino-8-[(2S)-butan-2-ylcarbamoyl][1,2,4]triazolo[1,5-a]pyridin-6-yl}-1H-pyrazol-1-yl)[6-(trifluoromethyl)pyridin-3-yl]methyl}piperidine-1-carboxylate] | 1.4 | 0.8 |
| CCC(c1ccc(C(F)(F)F)nc1)n1cc(-c2cc(C(=O)NC(C)CF)c3nc(N)nn3c2)cn1 (mixture of isomers) [Example I-147] | 25 | 3.9 |
